Data published in patent US11083717B2, “Compositions and methods for drug sensitization of parasites” (The Texas A&M University System, priority 2015, dated 2021).
Converted amounts (≈) assume the structure as drawn. Where two headings read alike, the source gives them in different places.

How the values were obtained:
[1] = test system: Cryptosporidium parvum (CP); test: Cell culture model of Cryptosporidium parvum infection in HCT-8 cells, real-time qRT-PCR; type: cell-based; conditions: Cryptosporidium parvum; for MIC50: 44 h
Experimental: Fresh oocysts of CP (Iowa strain) were purchased from Bunch Grass Farm (Deary, Id.). Oocysts were further purified by a Percoll-based gradient centrifugation method and surface sterilized with 10% bleach for 7 min on ice, followed by washes with phosphate-buffered saline (PBS). An ileocecal colorectal adenocarcinoma cell line (HCT-8, ATCC #CCL-244) was used to host the growth of CP in vitro. One day before the inoculation, HCT-8 cells were seeded in 96-well plates (2.5×10^4/well) containing RPMI 1640 medium supplied with 10% fetal bovine serum (200 μL medium/well in all experiments) and allowed to grow overnight at 37° C. under 5% CO2 atmosphere until they reached ˜90% confluence. For drug testing, host cells were infected with 1.5×10^4 oocysts per well (ratio ˜1:3). After inoculation, parasite oocysts were allowed to undergo excystation and invasion into host cells for 3 h at 37° C. Free parasites and oocyst walls in the medium were removed from the plates by an exchange of the culture medium. Drugs at specified concentrations were added into the culture at this time point (immediately after the medium exchange). Parasite-infected cells were then incubated at 37° C. for additional 41 h (total 44 h infection time). At least two independent experiments were conducted for every experimental condition, each including two replicates drugs and eight replicates for negative controls.
Plates containing HCT-8 cells infected with CP for 44 h were first centrifuged for 10 min at 1000×g to ensure that free merozoites in the medium were firmly settled on the bottom of the wells. Medium was removed, followed by two gentle washes with PBS. For extracting total RNA, 200 μL of ice-cold Bio-Rad iScript qRT-PCR sample preparation reagent (lysis buffer) (Bio-Rad Laboratories, Hercules, Calif.) was added into each well. Plates were sealed with heat sealing films and subjected to vortex for 20 min. Plates were then incubated at 75° C. for 15 min, followed by centrifugation (5 min, 2000×g) to settle down cell debris. Supernatants were used immediately in subsequent qRT-PCR reactions or the plates were stored at −80° C. until use.
The levels of 18S rRNA transcripts from CP and host cells (referred to as Cp18S and Hs18S) were detected by real-time qRT-PCR method using qScrip™ one-step SYBR green qRT-PCR kit (Quanta Biosciences, Gaithersburg, Md.). Cell lysates prepared as described above were diluted by 100 and 2000 folds for detecting Cp18S and Hs18S transcripts, respectively. Reactions were performed in hard-shell 384-well skirted PCR plates (Bio-Rad Laboratories, Hercules, Calif.) (10 μL/well) containing 3 μL diluted cell lysate, 5 μL one-step SYBR green master mix, 0.2 μl RT master mix and the following primers: Cp18S-1011F and Cp18S-1185R primer pair for Cp18S rRNA, and Hs18S-1F and Hs18S-1R primer pair for Hs18S rRNA. Hs18S levels were used as controls and for normalization.
Real-time qRT-PCR reactions were performed by a Bio-Rad CFX384 Touch Real-Time PCR Detection System. The reactions started with synthesizing cDNA at 50° C. for 20 min, followed by 5 min at 95° C. to denature RNA-cDNA hybrids and deactivate reverse transcriptase, and 40 two-temperature thermal cycles of PCR amplification at 95° C., 10 sec and 58° C., 30 sec. At the end of PCR amplification, melting curve analysis was performed between 65° C. to 95° C. At least 2 technical replicates were included in qRT-PCR reactions for each sample.
The % inhibition (% inh @ (μM)) was calculated using a standard curve.

S. cerevisiae = test: in vitro; conditions: Saccharomyces cerevisiae
human fibroblast = test: in vitro
[2] = HCT-8, @10 uM, read-out: % inh @
[3] = CP in HCT-8 cells, 44 h infection, 50% reduction of parasite growth vs control, NA: not active, read-out: MIC50

Compound: CONC(=O)COc1ccc(Oc2cnc3cc(Cl)ccc3n2)cc1 [NZ-274, 2-{4-[(6-chloroquinoxalin-2-yl)oxy]phenoxy}-N-methoxyacetamide]
- inhibition at 10 µM ([1]; HCT-8, read-out: % inh @ (μM)): 1.5%
- concentrations at which not toxic, S. cerevisiae cytotoxicity testing (S. cerevisiae): ≥ 100 µM
- concentrations at which not toxic, human fibroblast cytotoxicity testing (human fibroblast): ≥ 100 µM

Compound: CONC(=O)[C@@H](C)Oc1ccc(Oc2cnc3cc(Cl)ccc3n2)cc1 [NZ-295, (2R)-2-{4-[(6-chloroquinoxalin-2-yl)oxy]phenoxy}-N-methoxypropanamide]
- inhibition at 10 µM [1, 2]: 61%
- concentrations at which not toxic, S. cerevisiae cytotoxicity testing (S. cerevisiae): ≥ 100 µM
- concentrations at which not toxic, human fibroblast cytotoxicity testing (human fibroblast; human): ≥ 100 µM

Compound: CONC(=O)C(C)c1ccc(Oc2cnc3cc(Cl)ccc3n2)cc1 (stereo not shown) [NZ-310, 2-{4-[(6-chloroquinoxalin-2-yl)oxy]phenyl}-N-methoxypropanamide]
- inhibition at 10 µM [1, 2]: 83%
- concentrations at which not toxic, S. cerevisiae cytotoxicity testing (S. cerevisiae): ≥ 100 µM
- concentrations at which not toxic, human fibroblast cytotoxicity testing (human fibroblast; human): ≥ 100 µM

Compound: CC(C)NC(=O)Nc1ccc(Oc2nc3ccc(Cl)cc3s2)cc1 [NZ-331, 1-{4-[(6-chloro-1,3-benzothiazol-2-yl)oxy]phenyl}-3-(propan-2-yl)urea]
- inhibition at 0.05 µM ([1]; HCT-8, read-out: % inh @ (μM)): 36%
- concentrations at which not toxic, S. cerevisiae cytotoxicity testing (S. cerevisiae): ≥ 100 µM
- concentrations at which not toxic, human fibroblast cytotoxicity testing (human fibroblast): ≥ 100 µM

Compound: CC(C)NC(=O)Nc1ccc(Oc2nc3ccc(F)cc3s2)cc1 [NZ-332, 1-{4-[(6-fluoro-1,3-benzothiazol-2-yl)oxy]phenyl}-3-(propan-2-yl)urea]
- MIC50 [1]: ~2.5 µM (≈ 0.863 µg/mL)
- concentrations at which not toxic, S. cerevisiae cytotoxicity testing (S. cerevisiae): ≥ 100 µM
- concentrations at which not toxic, human fibroblast cytotoxicity testing (human fibroblast): ≥ 100 µM

Compound: CC(C(=O)N(C)C)c1ccc(Oc2nc3ccc(Cl)cc3s2)cc1 (stereo not shown) [NZ-368, 2-{4-[(6-chloro-1,3-benzothiazol-2-yl)oxy]phenyl}-N,N-dimethylpropanamide]
- MIC50 [1, 3]: < 0.125 µM
- concentrations at which not toxic, S. cerevisiae cytotoxicity testing (S. cerevisiae): 25 to 50 µM
- concentrations at which not toxic, human fibroblast cytotoxicity testing (human fibroblast; human): ≥ 100 µM

Compound: CC(C(=O)NC(CO)CO)c1ccc(Oc2nc3ccc(Cl)cc3s2)cc1 (stereo not shown) [NZ-371, 2-{4-[(6-chloro-1,3-benzothiazol-2-yl)oxy]phenyl}-N-(1,3-dihydroxypropan-2-yl)propanamide]
- MIC50 [1, 3]: 0.15 to 0.23 µM (≈ 0.061 to 0.0936 µg/mL)
- concentrations at which not toxic, S. cerevisiae cytotoxicity testing (S. cerevisiae): ≥ 100 µM
- concentrations at which not toxic, human fibroblast cytotoxicity testing (human fibroblast; human): ≥ 100 µM

Compound: CNC(=O)C(C)c1ccc(Oc2nc3ccc(F)cc3s2)cc1 (stereo not shown) [NZ-386, 2-{4-[(6-fluoro-1,3-benzothiazol-2-yl)oxy]phenyl}-N-methylpropanamide]
- MIC50 [1, 3]: 0.05 to 0.3 µM (≈ 0.0165 to 0.0991 µg/mL)
- concentrations at which not toxic, S. cerevisiae cytotoxicity testing (S. cerevisiae): ≥ 100 µM
- concentrations at which not toxic, human fibroblast cytotoxicity testing (human fibroblast; human): ≥ 100 µM

Compound: CNC(=O)C(C)c1ccc(Oc2nc3cc(F)c(F)cc3s2)cc1 (stereo not shown) [NZ-387, 2-{4-[(5,6-difluoro-1,3-benzothiazol-2-yl)oxy]phenyl}-N-methylpropanamide]
- MIC50 [1, 3]: ~0.44 µM (≈ 0.153 µg/mL)
- concentrations at which not toxic, S. cerevisiae cytotoxicity testing (S. cerevisiae): ≥ 100 µM
- concentrations at which not toxic, human fibroblast cytotoxicity testing (human fibroblast; human): ≥ 100 µM

Compound: CNC(=O)Cc1ccc(Oc2nc3ccc(Cl)cc3s2)cc1O [NZ-389, 2-{4-[(6-chloro-1,3-benzothiazol-2-yl)oxy]-2-hydroxyphenyl}-N-methylacetamide]
- MIC50 [1, 3]: ~1.1 µM (≈ 0.384 µg/mL)
- concentrations at which not toxic, S. cerevisiae cytotoxicity testing (S. cerevisiae): ≥ 100 µM
- concentrations at which not toxic, human fibroblast cytotoxicity testing (human fibroblast; human): ≥ 100 µM

Compound: CNC(=O)Cc1ccc(Oc2nc3ccc(F)cc3s2)cc1O [NZ-395, 2-{4-[(6-fluoro-1,3-benzothiazol-2-yl)oxy]-2-hydroxyphenyl}-N-methylacetamide]
- MIC50 [1, 3]: ~5 µM (≈ 1.66 µg/mL)
- concentrations at which not toxic, S. cerevisiae cytotoxicity testing (S. cerevisiae): ≥ 100 µM
- concentrations at which not toxic, human fibroblast cytotoxicity testing (human fibroblast; human): ≥ 100 µM

Compound: COC(=O)Cc1ccc(Oc2nc3cc(F)c(F)cc3s2)cc1 [NZ-398, methyl 2-{4-[(5,6-difluoro-1,3-benzothiazol-2-yl)oxy]phenyl}acetate]
- MIC50 [1]: ~10 µM
- inhibition at 10 µM ([1]; HCT-8, read-out: % inh @ (μM)): 50%
- concentrations at which not toxic, S. cerevisiae cytotoxicity testing (S. cerevisiae): ≥ 100 µM
- concentrations at which not toxic, human fibroblast cytotoxicity testing (human fibroblast): ≥ 100 µM

Compound: CNC(=O)Cc1ccc(Oc2nc3cc(F)c(F)cc3s2)cc1 [NZ-400, 2-{4-[(5,6-difluoro-1,3-benzothiazol-2-yl)oxy]phenyl}-N-methylacetamide]
- MIC50 [1]: ~10 µM (≈ 3.34 µg/mL)
- inhibition at 10 µM ([1]; HCT-8, read-out: % inh @ (μM)): 67%
- concentrations at which not toxic, S. cerevisiae cytotoxicity testing (S. cerevisiae): ≥ 100 µM
- concentrations at which not toxic, human fibroblast cytotoxicity testing (human fibroblast): ≥ 100 µM

Compound: CNC(=O)Cc1ccc(Oc2nc3cc(F)c(F)cc3s2)cc1O [NZ-401, 2-{4-[(5,6-difluoro-1,3-benzothiazol-2-yl)oxy]-2-hydroxyphenyl}-N-methylacetamide]
- inhibition at 4 µM ([1]; HCT-8, read-out: % inh @ (μM)): 3%
- concentrations at which not toxic, S. cerevisiae cytotoxicity testing (S. cerevisiae): ≥ 100 µM
- concentrations at which not toxic, human fibroblast cytotoxicity testing (human fibroblast): ≥ 100 µM

Compound: CC(C)NC(=O)Cc1ccc(Oc2nc3cc(F)c(F)cc3s2)cc1 [NZ-403, 2-{4-[(5,6-difluoro-1,3-benzothiazol-2-yl)oxy]phenyl)-N-(propan-2-yl)acetamide]
- MIC50 [1, 3]: ~10 µM (≈ 3.62 µg/mL)
- inhibition at 10 µM [1, 2]: 63%
- concentrations at which not toxic, S. cerevisiae cytotoxicity testing (S. cerevisiae): ≥ 100 µM
- concentrations at which not toxic, human fibroblast cytotoxicity testing (human fibroblast; human): ≥ 100 µM

Compound: CN1CCN(C(=O)Cc2ccc(Oc3nc4cc(F)c(F)cc4s3)cc2)CC1 [NZ-409, 2-{4-[(5,6-difluoro-1,3-benzothiazol-2-yl)oxy]phenyl}-1-(4-methylpiperazin-1-yl)ethan-1-one]
- MIC50 [1, 3]: ~0.44 µM (≈ 0.178 µg/mL)
- concentrations at which not toxic, S. cerevisiae cytotoxicity testing (S. cerevisiae): ≥ 100 µM
- concentrations at which not toxic, human fibroblast cytotoxicity testing (human fibroblast; human): ≥ 100 µM

Compound: CNC(=O)Cc1ccc(Oc2nc3ccc(F)cc3s2)cc1F [NZ-410, 2-{2-fluoro-4-[(6-fluoro-1,3-benzothiazol-2-yl)oxy]phenyl}-N-methylacetamide]
- MIC50 [1]: 2 to 10 µM (≈ 0.669 to 3.34 µg/mL)
- inhibition at 10 µM ([1]; HCT-8, read-out: % inh @ (μM)): 94%
- concentrations at which not toxic, S. cerevisiae cytotoxicity testing (S. cerevisiae): ≥ 100 µM
- concentrations at which not toxic, human fibroblast cytotoxicity testing (human fibroblast): ≥ 100 µM

Compound: CNC(=O)Cc1ccc(Oc2nc3cc(F)c(F)cc3s2)cc1F [NZ-411, 2-{4-[(5,6-difluoro-1,3-benzothiazol-2-yl)oxy]-2-fluorophenyl}-N-methylacetamide]
- inhibition at 10 µM ([1]; HCT-8, read-out: % inh @ (μM)): 75.7%
- concentrations at which not toxic, S. cerevisiae cytotoxicity testing (S. cerevisiae): ≥ 100 µM
- concentrations at which not toxic, human fibroblast cytotoxicity testing (human fibroblast): ≥ 100 µM

Compound: CN(C)CCNC(=O)Cc1ccc(Oc2nc3ccc(F)cc3s2)cc1 [NZ-425, N-[2-(dimethylamino)ethyl]-2-{4-[(6-fluoro-1,3-benzothiazol-2-yl)oxy]phenyl}acetamide]
- MIC50 [1, 3]: 0.25 to 0.5 µM (≈ 0.0934 to 0.187 µg/mL)
- concentrations at which not toxic, S. cerevisiae cytotoxicity testing (S. cerevisiae): ≥ 100 µM
- concentrations at which not toxic, human fibroblast cytotoxicity testing (human fibroblast; human): ≥ 100 µM

Compound: O=C(Cc1ccc(Oc2nc3ccc(F)cc3s2)cc1)NCCO [NZ-426, 2-{4-[(6-fluoro-1,3-benzothiazol-2-yl)oxy]phenyl}-N-(2-hydroxyethyl)acetamide]
- MIC50 [1, 3]: 0.25 to 1 µM (≈ 0.0866 to 0.346 µg/mL)
- concentrations at which not toxic, S. cerevisiae cytotoxicity testing (S. cerevisiae): ≥ 100 µM
- concentrations at which not toxic, human fibroblast cytotoxicity testing (human fibroblast; human): ≥ 100 µM

Compound: NCCNC(=O)Cc1ccc(Oc2nc3ccc(F)cc3s2)cc1 [NZ-427, N-(2-aminoethyl)-2-{4-[(6-fluoro-1,3-benzothiazol-2-yl)oxy]phenyl}acetamide]
- MIC50 [1, 3]: < 0.25 µM
- inhibition at 0.25 µM ([1]; HCT-8, @0.25 uM): 71%
- concentrations at which not toxic, S. cerevisiae cytotoxicity testing (S. cerevisiae): ≥ 100 µM
- concentrations at which not toxic, human fibroblast cytotoxicity testing (human fibroblast; human): ≥ 100 µM

Compound: O=C(Cc1ccc(Oc2nc3ccc(Cl)cc3s2)cc1)N1CCS(=O)(=O)CC1 [NZ-576, 4-(2-{4-[(6-chloro-1,3-benzothiazol-2-yl)oxy]phenyl}acetyl)-1λ^6,4-thiomorpholine-1,1-dione]
- MIC50 [1, 3]: ~0.03 µM (≈ 0.0131 µg/mL)

Compound: O=C(Cc1ccc(Oc2nc3ccc(Cl)cc3s2)cc1)NC1COC1 [NZ-577, 2-{4-[(6-chloro-1,3-benzothiazol-2-yl)oxy]phenyl}-N-(oxetan-3-yl)acetamide]
- MIC50 [1, 3]: ~0.25 µM (≈ 0.0937 µg/mL)
